# Laboratory results from ChEMBL document CHEMBL1909046, “DrugMatrix in vitro pharmacology data”.
# pIC50, pKi: −log10 of the molar value.
# Legend:
# Cytochrome P450 3A4 = Cytochrome P450 3A4 (Homo sapiens, UniProt P08684); details: bti-tn-5b1-4; further: in other assays of this panel Not Active means under 50% inhibition at 10 µM
# [1] = molecular target: Beta-3 adrenergic receptor (Homo sapiens, UniProt P13945); assay: DRUGMATRIX: Adrenergic beta3 radioligand binding (ligand: [125I] Cyanopindolol); assay type: cell membranes, HEK293, Membrane; details: hek293; Not Active = under 50% inhibition at 10 µM
# Chain of Beta-3 adrenergic receptor (P13945 whole entry): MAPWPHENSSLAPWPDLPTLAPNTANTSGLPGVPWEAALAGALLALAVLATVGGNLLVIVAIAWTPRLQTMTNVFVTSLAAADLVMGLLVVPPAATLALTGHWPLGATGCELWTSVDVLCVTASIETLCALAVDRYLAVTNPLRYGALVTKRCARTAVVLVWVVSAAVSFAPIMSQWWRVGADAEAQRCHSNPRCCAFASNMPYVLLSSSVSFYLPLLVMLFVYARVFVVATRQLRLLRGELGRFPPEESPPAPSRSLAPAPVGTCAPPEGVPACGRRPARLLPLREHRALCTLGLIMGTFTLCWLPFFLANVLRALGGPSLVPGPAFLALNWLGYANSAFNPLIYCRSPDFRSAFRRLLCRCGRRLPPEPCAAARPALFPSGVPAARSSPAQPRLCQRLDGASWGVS
# [2] = molecular target: Sodium-dependent noradrenaline transporter (Homo sapiens, UniProt P23975); assay: DRUGMATRIX: Norepinephrine Transporter radioligand binding (ligand: [125I] RTI-55); assay type: cell membranes, MDCK, Membrane; details: Not Active = under 50% inhibition at 10 µM
# Chain of Sodium-dependent noradrenaline transporter (P23975 whole entry): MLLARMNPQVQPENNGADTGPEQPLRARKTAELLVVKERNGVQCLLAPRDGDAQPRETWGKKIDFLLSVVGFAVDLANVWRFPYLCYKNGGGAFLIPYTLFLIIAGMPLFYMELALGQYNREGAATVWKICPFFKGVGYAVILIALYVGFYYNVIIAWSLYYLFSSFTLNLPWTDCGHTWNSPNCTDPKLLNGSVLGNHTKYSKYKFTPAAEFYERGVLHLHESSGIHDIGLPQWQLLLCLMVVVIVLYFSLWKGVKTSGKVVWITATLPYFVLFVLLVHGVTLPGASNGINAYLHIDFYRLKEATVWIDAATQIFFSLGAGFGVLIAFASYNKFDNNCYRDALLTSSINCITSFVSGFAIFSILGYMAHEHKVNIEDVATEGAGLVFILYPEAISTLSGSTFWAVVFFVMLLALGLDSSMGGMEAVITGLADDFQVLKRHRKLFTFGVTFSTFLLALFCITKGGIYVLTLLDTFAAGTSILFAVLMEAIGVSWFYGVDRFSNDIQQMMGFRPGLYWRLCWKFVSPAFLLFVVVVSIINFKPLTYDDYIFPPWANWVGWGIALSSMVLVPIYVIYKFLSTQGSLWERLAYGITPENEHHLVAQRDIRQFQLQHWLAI
# [3] = molecular target: Vascular endothelial growth factor receptor 1 (Homo sapiens, UniProt P17948); assay: biochemical; assay type: cell-based, HUVEC; details: huvec; further: in other assays of this panel Not Active means under 50% inhibition at 10 µM
# Chain of Vascular endothelial growth factor receptor 1 (P17948 whole entry): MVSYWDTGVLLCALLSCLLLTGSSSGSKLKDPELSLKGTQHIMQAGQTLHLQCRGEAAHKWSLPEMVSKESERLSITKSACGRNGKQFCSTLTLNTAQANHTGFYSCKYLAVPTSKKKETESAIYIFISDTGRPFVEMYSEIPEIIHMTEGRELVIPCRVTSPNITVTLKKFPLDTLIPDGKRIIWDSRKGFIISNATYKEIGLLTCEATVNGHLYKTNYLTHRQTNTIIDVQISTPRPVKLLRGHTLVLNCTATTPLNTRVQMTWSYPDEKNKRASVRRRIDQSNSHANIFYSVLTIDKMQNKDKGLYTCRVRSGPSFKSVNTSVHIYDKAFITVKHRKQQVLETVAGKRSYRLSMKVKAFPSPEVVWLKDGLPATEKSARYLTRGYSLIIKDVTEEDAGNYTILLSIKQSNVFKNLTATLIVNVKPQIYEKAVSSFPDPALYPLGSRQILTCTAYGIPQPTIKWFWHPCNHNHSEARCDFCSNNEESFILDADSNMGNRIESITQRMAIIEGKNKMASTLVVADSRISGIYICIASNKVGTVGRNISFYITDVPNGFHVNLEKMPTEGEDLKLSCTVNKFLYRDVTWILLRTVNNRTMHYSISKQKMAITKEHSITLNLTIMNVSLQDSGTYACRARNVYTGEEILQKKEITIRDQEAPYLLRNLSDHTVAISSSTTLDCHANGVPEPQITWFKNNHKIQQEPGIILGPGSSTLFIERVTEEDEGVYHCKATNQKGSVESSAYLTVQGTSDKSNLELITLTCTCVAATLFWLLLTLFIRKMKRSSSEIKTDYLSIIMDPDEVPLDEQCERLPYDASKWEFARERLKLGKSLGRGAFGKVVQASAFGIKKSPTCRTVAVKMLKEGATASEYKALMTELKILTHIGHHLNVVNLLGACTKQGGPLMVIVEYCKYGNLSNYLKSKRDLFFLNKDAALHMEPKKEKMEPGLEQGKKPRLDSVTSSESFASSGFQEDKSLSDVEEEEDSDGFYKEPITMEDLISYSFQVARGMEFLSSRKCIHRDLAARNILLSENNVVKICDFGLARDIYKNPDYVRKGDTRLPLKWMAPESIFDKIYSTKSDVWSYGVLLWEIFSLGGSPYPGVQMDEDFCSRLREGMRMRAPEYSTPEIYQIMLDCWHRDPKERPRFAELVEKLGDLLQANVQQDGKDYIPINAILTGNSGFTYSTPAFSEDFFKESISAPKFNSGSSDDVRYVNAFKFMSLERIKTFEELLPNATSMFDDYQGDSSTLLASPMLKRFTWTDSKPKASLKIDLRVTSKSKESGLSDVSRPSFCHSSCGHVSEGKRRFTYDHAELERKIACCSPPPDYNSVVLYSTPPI
# Substance-K receptor = molecular target: T1, Substance-K receptor (Homo sapiens, UniProt P21452); assay type: cell membranes, CHO, Membrane; details: cho; further: in other assays of this panel Not Active means under 50% inhibition at 10 µM
# T1 sequence (P21452 whole entry): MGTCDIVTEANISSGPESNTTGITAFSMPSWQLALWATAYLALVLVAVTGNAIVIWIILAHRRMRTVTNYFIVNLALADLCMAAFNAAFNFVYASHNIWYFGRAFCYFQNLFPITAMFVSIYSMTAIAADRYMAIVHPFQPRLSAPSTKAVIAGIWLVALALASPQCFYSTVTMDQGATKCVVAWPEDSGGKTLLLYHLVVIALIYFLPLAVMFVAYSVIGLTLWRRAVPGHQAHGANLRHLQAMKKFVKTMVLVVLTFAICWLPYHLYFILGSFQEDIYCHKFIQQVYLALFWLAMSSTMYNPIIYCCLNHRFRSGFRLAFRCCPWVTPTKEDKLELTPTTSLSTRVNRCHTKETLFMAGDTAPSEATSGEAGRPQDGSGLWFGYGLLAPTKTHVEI
# [4] = molecular target: T2, Receptor-type tyrosine-protein phosphatase C (Homo sapiens, UniProt P08575); parameters: species or system Escherichia coli;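 further: inhibition of CD45 enzyme activity measured using DiFMUP as substrate; in other assays of this panel Not Active means under 50% inhibition at 10 µM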
# T2 sequence (P08575 whole entry): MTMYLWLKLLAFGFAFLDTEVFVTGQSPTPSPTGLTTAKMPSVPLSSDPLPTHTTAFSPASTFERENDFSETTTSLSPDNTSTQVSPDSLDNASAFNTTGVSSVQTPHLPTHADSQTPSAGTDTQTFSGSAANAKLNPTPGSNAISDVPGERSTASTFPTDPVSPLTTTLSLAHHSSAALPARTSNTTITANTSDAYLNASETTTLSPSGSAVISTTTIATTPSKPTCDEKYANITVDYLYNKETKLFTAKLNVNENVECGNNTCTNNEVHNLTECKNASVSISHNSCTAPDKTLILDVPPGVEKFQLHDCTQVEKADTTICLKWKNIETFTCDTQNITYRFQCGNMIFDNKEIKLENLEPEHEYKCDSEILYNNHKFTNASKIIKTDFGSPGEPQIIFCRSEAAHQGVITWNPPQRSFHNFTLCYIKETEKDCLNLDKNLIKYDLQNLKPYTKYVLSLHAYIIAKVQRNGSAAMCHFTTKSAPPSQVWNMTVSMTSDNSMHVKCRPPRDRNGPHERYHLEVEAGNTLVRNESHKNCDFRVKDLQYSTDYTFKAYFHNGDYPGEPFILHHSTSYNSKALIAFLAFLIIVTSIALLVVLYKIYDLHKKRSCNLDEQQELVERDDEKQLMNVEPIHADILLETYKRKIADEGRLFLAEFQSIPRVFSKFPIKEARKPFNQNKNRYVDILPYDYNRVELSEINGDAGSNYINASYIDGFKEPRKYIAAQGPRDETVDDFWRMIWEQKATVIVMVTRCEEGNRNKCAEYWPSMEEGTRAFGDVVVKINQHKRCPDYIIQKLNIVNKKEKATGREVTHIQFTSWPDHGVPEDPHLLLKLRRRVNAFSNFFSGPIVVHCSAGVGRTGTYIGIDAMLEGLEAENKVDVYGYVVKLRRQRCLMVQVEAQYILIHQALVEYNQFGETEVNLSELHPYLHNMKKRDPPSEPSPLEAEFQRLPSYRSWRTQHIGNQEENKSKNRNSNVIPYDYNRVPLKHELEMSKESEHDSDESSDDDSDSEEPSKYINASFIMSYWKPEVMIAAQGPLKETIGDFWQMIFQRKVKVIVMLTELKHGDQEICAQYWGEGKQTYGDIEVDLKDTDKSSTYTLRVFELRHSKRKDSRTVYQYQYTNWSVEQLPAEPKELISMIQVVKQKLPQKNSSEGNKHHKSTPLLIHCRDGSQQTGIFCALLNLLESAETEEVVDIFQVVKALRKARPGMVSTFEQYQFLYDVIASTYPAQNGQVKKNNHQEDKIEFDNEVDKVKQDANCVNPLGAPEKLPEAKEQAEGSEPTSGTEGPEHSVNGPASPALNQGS
# Chain of Cytochrome P450 3A4 (P08684 whole entry): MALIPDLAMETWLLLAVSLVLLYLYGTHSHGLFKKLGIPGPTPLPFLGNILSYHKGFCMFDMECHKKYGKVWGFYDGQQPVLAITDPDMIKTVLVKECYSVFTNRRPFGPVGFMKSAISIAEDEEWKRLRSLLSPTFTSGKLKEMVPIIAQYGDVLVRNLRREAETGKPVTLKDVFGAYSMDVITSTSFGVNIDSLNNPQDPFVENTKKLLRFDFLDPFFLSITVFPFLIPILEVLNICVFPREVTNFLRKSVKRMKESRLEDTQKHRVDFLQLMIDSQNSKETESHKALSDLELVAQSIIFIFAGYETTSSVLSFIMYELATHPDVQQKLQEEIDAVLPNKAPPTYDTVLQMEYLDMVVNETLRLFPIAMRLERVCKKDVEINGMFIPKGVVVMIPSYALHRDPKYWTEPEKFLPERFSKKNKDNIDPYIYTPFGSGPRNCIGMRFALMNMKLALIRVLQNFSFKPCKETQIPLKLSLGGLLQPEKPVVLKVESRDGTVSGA
Compound,IC50 (Cytochrome P450 3A4),Ki (Cytochrome P450 3A4),IC50 [1],IC50 ([2]; mdck),IC50 [3],IC50 (Substance-K receptor),IC50 [4],pIC50 ([2]; read-out: IC50),pKi ([2]; read-out: Ki),Ki [1],Ki ([2]; mdck),Ki [3],Ki (Substance-K receptor),Ki [4]
CC(=O)OCC(CCn1cnc2cnc(N)nc21)COC(C)=O [FAMCICLOVIR],Not Active,Not Active,Not Active,Not Active,Not Active,Not Active,Not Active,–,–,–,–,–,–,–
O=C(O)Cc1ccc(-c2ccccc2)cc1 [FELBINAC],Not Active,Not Active,Not Active,Not Active,Not Active,Not Active,Not Active,–,–,–,–,–,–,–
CC(C(=O)O)c1ccc(-c2ccccc2)c(F)c1 (stereo unspecified) [FLURBIPROFEN],Not Active,Not Active,Not Active,Not Active,Not Active,Not Active,Not Active,–,–,–,–,–,–,–
NC[C@@H]1O[C@H](O[C@H]2[C@@H](O)[C@H](O[C@@H]3[C@@H](O)[C@H](N)C[C@H](N)[C@H]3O[C@H]3O[C@H](CN)[C@@H](O)[C@H](O)[C@H]3N)O[C@@H]2CO)[C@H](N)[C@@H](O)[C@@H]1O [FRAMYCETIN],Not Active,Not Active,Not Active,Not Active,Not Active,Not Active,Not Active,–,–,–,–,–,–,–
C[C@H]([C@](O)(Cn1cncn1)c1ccc(F)cc1F)S(C)(=O)=O [GENACONAZOLE],Not Active,Not Active,Not Active,Not Active,Not Active,Not Active,Not Active,–,–,–,–,–,–,–
Cc1c(F)c(N2CCNC(C)C2)cc2c1c(=O)c(C(=O)O)cn2C1CC1 (stereo unspecified) [GREPAFLOXACIN],Not Active,Not Active,Not Active,Not Active,Not Active,Not Active,Not Active,–,–,–,–,–,–,–
N=C(N)N/N=C/c1c(Cl)cccc1Cl [GUANABENZ],Not Active,Not Active,Not Active,Not Active,Not Active,Not Active,Not Active,–,–,–,–,–,–,–
NC[C@H]1O[C@H](O[C@H]2[C@H](O)[C@@H](O[C@H]3O[C@H](CO)[C@@H](O)[C@H](N)[C@H]3O)[C@H](N)C[C@@H]2N)[C@H](O)[C@@H](O)[C@@H]1O [KANAMYCIN],Not Active,Not Active,Not Active,Not Active,Not Active,Not Active,Not Active,–,–,–,–,–,–,–
CC(C(=O)O)c1ccc(CC2CCCC2=O)cc1 (stereo unspecified) [LOXOPROFEN],Not Active,Not Active,Not Active,Not Active,Not Active,Not Active,Not Active,–,–,–,–,–,–,–
Cc1cccc(Nc2ccccc2C(=O)O)c1C [MEFENAMIC ACID],Not Active,Not Active,Not Active,Not Active,Not Active,Not Active,Not Active,–,–,–,–,–,–,–
CC(=O)O[C@]1(C(C)=O)CC[C@H]2[C@@H]3C=C(C)C4=CC(=O)CC[C@]4(C)[C@H]3CC[C@@]21C [MEGESTROL ACETATE],Not Active,Not Active,Not Active,Not Active,Not Active,Not Active,Not Active,–,–,–,–,–,–,–
COc1ccccc1OCC(O)COC(N)=O (stereo unspecified) [METHOCARBAMOL],Not Active,Not Active,Not Active,Not Active,Not Active,Not Active,Not Active,–,–,–,–,–,–,–
CN(Cc1cnc2nc(N)nc(N)c2n1)c1ccc(C(=O)N[C@@H](CCC(=O)O)C(=O)O)cc1 [METHOTREXATE],Not Active,Not Active,Not Active,Not Active,Not Active,Not Active,Not Active,–,–,–,–,–,–,–
COC(=O)c1ccccc1O [METHYL SALICYLATE],Not Active,Not Active,Not Active,Not Active,Not Active,Not Active,Not Active,–,–,–,–,–,–,–
COc1ccc2cc(CCC(C)=O)ccc2c1 [NABUMETONE],Not Active,Not Active,Not Active,–,Not Active,Not Active,Not Active,5.73,5.73,–,–,–,–,–
O=C(O)c1cccnc1 [NIACIN],Not Active,Not Active,Not Active,Not Active,Not Active,Not Active,Not Active,–,–,–,–,–,–,–
CNC(=C[N+](=O)[O-])NCCSCc1csc(CN(C)C)n1 [NIZATIDINE],Not Active,Not Active,Not Active,Not Active,Not Active,Not Active,Not Active,–,–,–,–,–,–,–
C[C@]12C/C(=C/O)C(=O)C[C@@H]1CC[C@@H]1[C@@H]2CC[C@@]2(C)[C@H]1CC[C@]2(C)O [OXYMETHOLONE],Not Active,Not Active,Not Active,Not Active,Not Active,Not Active,Not Active,–,–,–,–,–,–,–
CC(C)(CO)C(O)C(=O)NCCCO (stereo unspecified) [PANTHENOL],Not Active,Not Active,Not Active,Not Active,Not Active,Not Active,Not Active,–,–,–,–,–,–,–
COc1ccc(Cc2nccc3cc(OC)c(OC)cc23)cc1OC [PAPAVERINE],Not Active,Not Active,Not Active,Not Active,Not Active,Not Active,Not Active,–,–,–,–,–,–,–
CCCCC1C(=O)N(c2ccccc2)N(c2ccccc2)C1=O [PHENYLBUTAZONE],Not Active,Not Active,Not Active,Not Active,Not Active,Not Active,Not Active,–,–,–,–,–,–,–
Cc1cccc(Nc2cc(Cl)nc(SCC(=O)O)n2)c1C [PIRINIXIC ACID],Not Active,Not Active,Not Active,Not Active,Not Active,Not Active,Not Active,–,–,–,–,–,–,–
CC[C@H](C)C(=O)O[C@H]1C[C@H](O)C=C2C=C[C@H](C)[C@H](CC[C@@H](O)C[C@@H](O)CC(=O)O)[C@H]21 [PRAVASTATIN],Not Active,Not Active,Not Active,Not Active,Not Active,Not Active,Not Active,–,–,–,–,–,–,–
CC(C)(Sc1cc(C(C)(C)C)c(O)c(C(C)(C)C)c1)Sc1cc(C(C)(C)C)c(O)c(C(C)(C)C)c1 [PROBUCOL],Not Active,Not Active,Not Active,Not Active,Not Active,Not Active,Not Active,–,–,–,–,–,–,–
COBALT(II) ACETYLACETONATE,Not Active,Not Active,Not Active,Not Active,Not Active,Not Active,Not Active,–,–,Not Active,Not Active,Not Active,Not Active,Not Active
